Here are results for four compounds from article PMC4059180 (Journal of medicinal chemistry, 2013).

For series [1], the system named is mFAP transfected HEK293 cells. The experiment in a line: CellTiter-Blue cell viability assay. Type of series: cell-based. The conditions noted are these: 48 h. Background: Resazurin is reduced to fluorescent resorufin, in cell work by metabolically active cells.
For the next series, the system named is several tumor cell lines. The conditions noted are these: cited from earlier work.
For the next series, the system named is tumor growth. As to conditions: mice inoculated with those same cells; cited from earlier work.
The target of another series is T1, FAP (Homo sapiens, UniProt Q12884).
T1 sequence (Q12884 1-760): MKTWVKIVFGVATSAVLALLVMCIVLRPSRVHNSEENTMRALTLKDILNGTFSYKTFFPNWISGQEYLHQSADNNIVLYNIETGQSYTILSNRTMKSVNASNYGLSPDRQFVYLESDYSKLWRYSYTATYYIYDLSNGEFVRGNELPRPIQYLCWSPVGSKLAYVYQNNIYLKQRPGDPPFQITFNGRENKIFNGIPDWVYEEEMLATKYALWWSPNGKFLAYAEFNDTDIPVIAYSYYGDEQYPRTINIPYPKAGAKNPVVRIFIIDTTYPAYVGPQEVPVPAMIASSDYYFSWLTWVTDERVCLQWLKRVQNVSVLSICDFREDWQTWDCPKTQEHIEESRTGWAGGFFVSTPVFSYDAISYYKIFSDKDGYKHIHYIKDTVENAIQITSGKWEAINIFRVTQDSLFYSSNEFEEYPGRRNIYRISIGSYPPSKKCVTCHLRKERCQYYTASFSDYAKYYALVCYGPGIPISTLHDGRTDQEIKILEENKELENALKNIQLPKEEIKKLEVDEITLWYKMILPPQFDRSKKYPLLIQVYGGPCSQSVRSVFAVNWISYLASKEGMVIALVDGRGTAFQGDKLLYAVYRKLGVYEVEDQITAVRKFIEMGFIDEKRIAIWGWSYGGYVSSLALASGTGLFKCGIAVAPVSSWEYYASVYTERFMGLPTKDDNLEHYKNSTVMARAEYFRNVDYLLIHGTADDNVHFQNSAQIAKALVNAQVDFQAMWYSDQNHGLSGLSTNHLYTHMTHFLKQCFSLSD
The series can be described thus: Enzyme kinetics. It counts as biochemical. The conditions noted are these: highest concentrations tested.

For a further series, the system named is cells. The conditions noted are these: cells in vitro and in vivo; cited from earlier work.

As to `C[C@@H](NC(=O)c1ccncc1)C(=O)N1CCC[C@H]1B(O)O` [Compound 6, N-(Pyridine-4-carbonyl)-(R)-alaninyl-(R)-boroproline], the cytotoxicity result in series [1] is listed as “No cytotoxicity was observed”.

For `CC(C)[C@H](N)C(=O)N1CCC[C@H]1B(O)O` [Compound 20, (S)-Valinyl-(R)-boroproline], the cytotoxicity entry in the series on several tumor cell lines is recorded as “lack cytotoxicity against several tumor cell lines”. For the same compound, the “tumor growth in vivo” value with tumor growth is “attenuating tumor growth in vivo”.

As for `CC(C)[C@H](NC(=O)c1cccnc1)C(=O)N1CCC[C@H]1B(O)O` [Compound 22, N-(Pyridine-3-carbonyl)-(R)-valinyl-(R)-boroproline], the “inhibition of FAP in kinetic analysis” value at FAP was “does not inhibit FAP at the highest concentrations tested”.

Take `CC(C)C[C@H](NC(=O)[C@H](Cc1ccccc1)NC(=O)c1cnccn1)B(O)O` [bortezomib, Bortezomib]: the cytotoxicity entry in the series on cells was “cytotoxic”.
